In experiment [1] the test system is T1, β-glucosidase from the digestive fluid of Rhynchophorus palmarum larvae.
T1 construct: gene cellobiase; native, purified from larval digestive fluid (Abidjan, Côte d'Ivoire); monomer, 58 kDa SDS-PAGE, 60 kDa gel filtration
As to the kind of experiment: glucose release by glucose oxidase-peroxidase, Lineweaver-Burk. The following applies: 100 mM acetate buffer pH 5.0, 37°C. It counts as biochemical. An excerpt:
glucose release by glucose oxidase-peroxidase, Lineweaver-Burk on β-glucosidase from the digestive fluid of Rhynchophorus palmarum larvae

The test system is the same in experiment [2]. Kind of experiment: p-nitrophenol release at […] nm, Lineweaver-Burk. It counts as biochemical. As to conditions: 100 mM acetate buffer pH 5.0, 37°C.

Two compounds from publication PMC3011871, “Purification and Biochemical Characterization of a Specific β-Glucosidase from the Digestive Fluid of Larvae of the Palm Weevil, Rhynchophorus palmarum” (Journal of Insect Science, 2009) can be followed below.

In general, Km refers to the substrate concentration at which the rate is half of its maximum.

As for `OC[C@H]1O[C@@H](O[C@H]2[C@H](O)[C@@H](O)C(O)O[C@@H]2CO)[C@H](O)[C@@H](O)[C@@H]1O` (some centres unmarked) [cellobiose], the Michaelis constant (Km) in experiment [1] turned out to be 310 µM.

Take `O=[N+]([O-])c1ccc(O[C@@H]2O[C@H](CO)[C@@H](O)[C@H](O)[C@H]2O)cc1` [p-nitrophenyl-β-D-glucopyranoside]: the Michaelis constant (Km) in experiment [2] was found to be 250 µM.
